Measurements published in PMC3441713, “Citrullination of Histone H3 Interferes with HP1-Mediated Transcriptional Repression” (PLoS Genetics, 2012).
Entries after “also recorded” stand apart in the source; their conditions may differ.

Columns and labels:
[1] = tested on: MCF7 cells; assay: ChIP on HERV LTRs and gene promoters in MCF7 cells; format: cell-based, human
Description: Values are averaged from 3 independent experiments.
Ionophores were used at 1 µM.

[2] = tested on: MCF7 cells; assay: RT-qPCR of HERV, repeat and immune gene mRNA in MCF7 cells; format: cell-based, human
Description: (§1) HP1 small interfering RNAs (siRNAs) were described previously. PADI4 (J-012471-05) and Glyceraldehyde-3-phosphate dehydrogenase control siRNAs were purchased from Dharmacon. Cells were harvested 72 h after transfection with DharmaFECT 1 (T 2001-03). Total RNA from PBMCs and MCF7 cells was extracted with RNeasy (Qiagen) and quantified with an ND-1000 (Nanodrop). After DNase treatment (Roche), reverse transcription was performed using SuperScript III (Invitrogen) and random hexanucleotides according to the manufacturer's instructions. Complementary DNA was quantified by RT-qPCR as previously described. Proteins were extracted as described previously and detected by Western blotting. Acid extraction of histones was conducted as described by Shechter, et al., [78].

[3] = tested on: Jurkat T cells; assay: RT-qPCR of TNFα, IL8 and PADI4 mRNA in Jurkat T cells; format: cell-based; details: 200 µM Cl-amidine, 72 h; cells stimulated by ionomycin and PMA; duplicate
Description: (B) Total RNA was isolated from Jurkat cells either un-stimulated or treated with ionomycin and PMA for 2 hour. Changes in mRNA levels for the indicated genes were quantified by RT-qPCR. The data are presented as the means ± SEM of triplicate experiments. […] (D) Total RNA was isolated from Jurkat cells treated as in B minus or plus PADI-inhibitor cl-amidine as indicated. Changes in mRNA levels for the indicated genes were quantified by RT-qPCR. The data are presented as the means ± SEM of duplicate experiments.
Jurkat cells were treated with phorbol myristate acetate (PMA) at 40 nM. Ionophores were used at 1 µM. PADI4 inhibitor, Cl-amidine (from Bertin Pharma) was dissolved in 1× PBS as a 50 mM stock solution. MCF7 and Jurkat cells were treated with 200 µM Cl-amidine in complete cell culture medium for exactly 72 h.

[4] = tested on: MCF7 cells; assay: Immunoblot of PADI4 and H3cit8K9me3 in MCF7 cells; format: cell-based, human
From the text: Anti-H3cit8K9me3 antibody was produced in rabbits using a peptide coupled to KLH with the following sequence: ARTKQTA (cit)(Kme3)[…]. Anti-PADI4 (ChIP: P4749; immunoblots: ab50332), anti-H3cit(2,8,17) (ab5103), anti-H3(ab1791), and anti-H3K9me3 (ab8898) antibodies were purchased from Abcam. Anti-HP1α (ChIP: 1H5; immunoblots: 2G9) and anti-Brg1 (2E12) were from Euromedex. Calcium ionophore A23187 (used on HEK293 and MCF7 cells) and ionomycin (only ionophore tolerated by Jurkat cells), and 17-ß-estradiol (E2758) were purchased from Sigma. DNA was labeled with 4′,6-diamidino-2-phenylindole (DAPI; Invitrogen) at a concentration of 150 ng.ml^−1. […] Peptides were carefully quantified by amino acid analysis, and the presence of the modifications was confirmed by mass spectrometry. […]
as §1

[5] = tested on: Jurkat T cells; assay: PADI4 production in Jurkat T cells after estrogen/ionophore treatment (data not shown); format: cell-based
[6] = E2 (200 nM, 24 h) + A23187 (5 µM, 30 min), minus or plus 200 µM Cl-amidine, relative to un-induced

Compound | levels of HP1α occupancy at HERV-H, HERV-W/LTR and TNFα promoter ([1]; E2+A23187 plus 200 µM Cl-amidine, anti-HP1α) | expression of HERV-H/env62, ERVWE1 and the selected cytokine genes ([2]; 200 µM Cl-amidine, 72 h, no E2/A23187, four replicates) | expression of HERV-H/env62, ERVWE1 and the selected cytokine genes [2, 6] | TNFα and IL8 mRNA accumulation [3] | levels of H3Cit8K9me3 ([4]; 200 µM Cl-amidine, 72 h) | production of PADI4 [5] | levels of citrullinated histone H3 at HERV-H, HERV-W/LTR and TNFα promoter ([1]; E2+A23187, anti-H3cit (2, 8, 17) or anti-H3cit8K9me3) | levels of HP1α recruitment at HERV-H, HERV-W/LTR and TNFα promoter ([1]; E2+A23187, anti-HP1α) | expression of HERV-H/env62 ([2]; E2 and A23187, 24 h, normalized to RPLP0, three replicates) | total levels of H3cit8K9me3 modification ([4]; 200 nM E2 24 h, then 5 µM A23187 30 min) | total levels of PADI4 ([4]; 200 nM E2 24 h, then 5 µM A23187 30 min in Locke's solution)
NC(=O)[C@H](CCCN=C(N)CCl)NC(=O)c1ccccc1 [Cl-amidine] | partially restored | reduced expression | Cl-amidine-sensitive increase in expression | reduced the kinetic and the abundance | decreased levels of H3Cit8K9me3 |  |  |  |  |  | 
17-ß-estradiol [E2/A23187] |  |  | Cl-amidine-sensitive increase in expression |  |  | stimulated production | locally increases levels of citrullinated histone H3 | markedly decreased | increases the expression | increases total levels | increases total levels; also recorded: induced
